Experimental data as given in ChEMBL document CHEMBL1201862, “PubChem BioAssay data set” (2004).
Each block holds one compound with its values, some of them ahead of it. Active and inactive are the calls of the source.

Legend:
CAAX prenyl protease 2 [1] = biological target: T1, CAAX prenyl protease 2 (Homo sapiens, UniProt Q9Y256); test: inhibition of Ras-converting CAAX protease Rce1 – biochemical, yeast membranes, quenched-peptide fluorescence, cherry-pick, dose response (AID 588849)
T1 sequence (Q9Y256 whole entry): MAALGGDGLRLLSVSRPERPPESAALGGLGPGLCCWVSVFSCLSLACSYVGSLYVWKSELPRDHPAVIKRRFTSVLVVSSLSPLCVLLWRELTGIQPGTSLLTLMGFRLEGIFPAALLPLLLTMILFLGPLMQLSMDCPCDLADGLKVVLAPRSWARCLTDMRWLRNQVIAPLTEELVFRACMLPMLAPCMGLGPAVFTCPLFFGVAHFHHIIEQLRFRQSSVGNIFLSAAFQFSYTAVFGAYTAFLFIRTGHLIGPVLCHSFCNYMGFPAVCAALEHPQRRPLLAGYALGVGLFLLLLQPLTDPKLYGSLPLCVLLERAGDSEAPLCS

[2] = HIV-1 Vif–A3G interaction blockers – biochemical, TR-FRET, GST-Vif 1-94, biotin-A3G peptide, dose response retest, primary screen (AID 1117319); assay type: functional;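 also: TR-FRET signal of purified GST-Vif binding a biotinylated A3G peptide; inhibitors lower the FRET signal by blocking Vif and A3G binding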
CAAX prenyl protease 2 [3] = biological target: CAAX prenyl protease 2 (Saccharomyces cerevisiae S288c, UniProt Q03530); assay type: biochemical
Trypsin = Trypsin (Sus scrofa, UniProt P00761); test: trypsin protease activity blockade – biochemical, quenched peptide fluorescence, cherry-pick, selectivity assay for Rce1 protease inhibitor project, dose response (AID 488789)
CAAX prenyl protease 1 = CAAX prenyl protease 1 (Saccharomyces cerevisiae S288c, UniProt P47154); test: yeast CAAX protease Ste24 inhibition – biochemical, S. cerevisiae, plate reader, cherry-pick, dose response (AID 488815)
Protein skinhead-1 = biological target: T2, Protein skinhead-1 (Caenorhabditis elegans, UniProt P34707); assay type: functional
T2 sequence (P34707 whole entry): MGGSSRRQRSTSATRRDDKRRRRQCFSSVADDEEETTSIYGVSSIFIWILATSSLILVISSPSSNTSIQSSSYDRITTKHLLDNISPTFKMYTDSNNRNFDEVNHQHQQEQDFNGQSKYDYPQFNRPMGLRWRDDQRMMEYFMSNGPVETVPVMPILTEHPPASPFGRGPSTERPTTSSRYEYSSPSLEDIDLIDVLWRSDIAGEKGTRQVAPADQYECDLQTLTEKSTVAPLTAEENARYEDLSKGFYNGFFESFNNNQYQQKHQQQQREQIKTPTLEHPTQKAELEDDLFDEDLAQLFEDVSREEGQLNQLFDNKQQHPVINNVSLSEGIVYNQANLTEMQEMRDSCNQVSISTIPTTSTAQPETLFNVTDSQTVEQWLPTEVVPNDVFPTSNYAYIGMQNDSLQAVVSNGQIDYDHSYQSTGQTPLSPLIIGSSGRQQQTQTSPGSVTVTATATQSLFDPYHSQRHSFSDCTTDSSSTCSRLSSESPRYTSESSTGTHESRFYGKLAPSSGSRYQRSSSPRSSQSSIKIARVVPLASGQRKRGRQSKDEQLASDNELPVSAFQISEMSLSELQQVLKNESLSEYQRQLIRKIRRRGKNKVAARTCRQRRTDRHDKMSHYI

Estrogen receptor beta [4] = biological target: T3, Estrogen receptor beta (Homo sapiens, UniProt Q92731); test: blockers of SRC-3 recruitment to ERβ – biochemical, ELISA, streptavidin-HRP readout, orthogonal assay, confirmation (AID 1060)
[5] = biological target: 26S proteasome non-ATPase regulatory subunit 14 (Homo sapiens, UniProt O00487); test: inhibition of proteasome subunit RPN11 – biochemical, fluorescence polarization, uHTS hits, confirmation (AID 602368); assay type: functional
Prothrombin = Prothrombin (Bos taurus, UniProt P00735); test: thrombin protease inhibitors – biochemical, fluorescence polarization, uHTS hits, dose response (AID 602369); assay type: functional
Protein Tat = Protein Tat (Human immunodeficiency virus type 1 group M subtype B (isolate HXB2)(HIV-1), UniProt P04608); assay type: functional;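 also: tat binding to TAR RNA read out by fluorescence polarization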
[6] = antiviral protection against BTV-induced cell death – arbovirus, BSR cells, confirmation (AID 1250); assay type: functional;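 also: protection from viral cytopathic effect measured as cell viability by ATP luminescence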
Large T antigen = Large T antigen (Simian virus 40, UniProt P03070); assay type: functional, Betapolyomavirus macacae;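 also: Confirmatory-stage PubChem screen for compounds that inhibit SV40 T antigen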
Estrogen receptor beta [7] = biological target: T3, Estrogen receptor beta
[8] = biological target: 72 kDa type IV collagenase (Homo sapiens, UniProt P08253); test: Dose Response validation of uHTS RPN11 inhibitor hits using a MMP-2 Fluorescence assay.; assay type: functional
[9] = biological target: Induced myeloid leukemia cell differentiation protein Mcl-1 (Homo sapiens, UniProt Q07820); assay type: functional
[10] = protection from phage-mediated lysis, alamar blue read-out – E. coli UTI89, K1F phage, bacterial capsule biogenesis inhibitors (AID 488966); assay type: functional
Coagulation factor XII = biological target: T4, Coagulation factor XII (Homo sapiens, UniProt P00748); test: activated coagulation factor XII inhibitor potency, concentration-effect curve, cell-free (AID 716); assay type: functional
T4 sequence (P00748 whole entry): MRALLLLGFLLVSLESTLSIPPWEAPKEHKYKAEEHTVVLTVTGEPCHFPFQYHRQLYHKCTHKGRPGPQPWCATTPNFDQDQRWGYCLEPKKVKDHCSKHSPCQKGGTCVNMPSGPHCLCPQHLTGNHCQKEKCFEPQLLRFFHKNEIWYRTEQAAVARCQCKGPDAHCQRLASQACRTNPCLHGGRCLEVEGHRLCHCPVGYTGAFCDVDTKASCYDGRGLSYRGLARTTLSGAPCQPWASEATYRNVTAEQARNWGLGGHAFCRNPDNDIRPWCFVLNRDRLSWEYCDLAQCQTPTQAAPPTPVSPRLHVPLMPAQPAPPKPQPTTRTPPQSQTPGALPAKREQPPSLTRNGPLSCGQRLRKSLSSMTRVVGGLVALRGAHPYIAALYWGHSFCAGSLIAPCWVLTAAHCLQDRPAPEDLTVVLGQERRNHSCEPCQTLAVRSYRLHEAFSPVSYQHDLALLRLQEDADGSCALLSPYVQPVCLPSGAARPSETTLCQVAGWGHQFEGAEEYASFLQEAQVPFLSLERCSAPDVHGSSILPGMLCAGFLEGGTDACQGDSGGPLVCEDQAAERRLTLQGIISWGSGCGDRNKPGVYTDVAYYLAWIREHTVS

T3 sequence (Q92731 whole entry): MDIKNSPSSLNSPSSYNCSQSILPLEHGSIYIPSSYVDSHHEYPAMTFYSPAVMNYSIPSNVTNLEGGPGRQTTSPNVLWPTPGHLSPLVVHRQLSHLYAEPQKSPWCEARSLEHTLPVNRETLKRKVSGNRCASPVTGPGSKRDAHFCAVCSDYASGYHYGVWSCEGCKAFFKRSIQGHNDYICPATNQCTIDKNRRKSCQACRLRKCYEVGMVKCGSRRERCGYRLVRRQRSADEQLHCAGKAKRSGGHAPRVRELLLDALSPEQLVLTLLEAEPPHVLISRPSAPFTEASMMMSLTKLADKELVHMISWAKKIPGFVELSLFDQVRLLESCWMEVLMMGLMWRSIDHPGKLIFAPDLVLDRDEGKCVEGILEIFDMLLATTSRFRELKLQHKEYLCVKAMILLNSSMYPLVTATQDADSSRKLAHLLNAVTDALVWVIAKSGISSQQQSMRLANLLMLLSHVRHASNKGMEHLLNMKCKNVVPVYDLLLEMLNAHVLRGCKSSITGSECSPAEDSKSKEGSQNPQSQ
26S proteasome non-ATPase regulatory subunit 14, sequence (O00487 whole entry): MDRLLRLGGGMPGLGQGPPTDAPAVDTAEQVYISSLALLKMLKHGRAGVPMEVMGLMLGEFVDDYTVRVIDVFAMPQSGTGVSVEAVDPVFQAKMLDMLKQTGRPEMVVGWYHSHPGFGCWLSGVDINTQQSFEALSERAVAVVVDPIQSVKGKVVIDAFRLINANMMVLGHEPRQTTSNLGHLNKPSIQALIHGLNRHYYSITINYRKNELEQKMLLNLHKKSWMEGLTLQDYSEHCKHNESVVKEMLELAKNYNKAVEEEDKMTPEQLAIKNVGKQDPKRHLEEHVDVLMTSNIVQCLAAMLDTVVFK
72 kDa type IV collagenase, sequence (P08253 whole entry): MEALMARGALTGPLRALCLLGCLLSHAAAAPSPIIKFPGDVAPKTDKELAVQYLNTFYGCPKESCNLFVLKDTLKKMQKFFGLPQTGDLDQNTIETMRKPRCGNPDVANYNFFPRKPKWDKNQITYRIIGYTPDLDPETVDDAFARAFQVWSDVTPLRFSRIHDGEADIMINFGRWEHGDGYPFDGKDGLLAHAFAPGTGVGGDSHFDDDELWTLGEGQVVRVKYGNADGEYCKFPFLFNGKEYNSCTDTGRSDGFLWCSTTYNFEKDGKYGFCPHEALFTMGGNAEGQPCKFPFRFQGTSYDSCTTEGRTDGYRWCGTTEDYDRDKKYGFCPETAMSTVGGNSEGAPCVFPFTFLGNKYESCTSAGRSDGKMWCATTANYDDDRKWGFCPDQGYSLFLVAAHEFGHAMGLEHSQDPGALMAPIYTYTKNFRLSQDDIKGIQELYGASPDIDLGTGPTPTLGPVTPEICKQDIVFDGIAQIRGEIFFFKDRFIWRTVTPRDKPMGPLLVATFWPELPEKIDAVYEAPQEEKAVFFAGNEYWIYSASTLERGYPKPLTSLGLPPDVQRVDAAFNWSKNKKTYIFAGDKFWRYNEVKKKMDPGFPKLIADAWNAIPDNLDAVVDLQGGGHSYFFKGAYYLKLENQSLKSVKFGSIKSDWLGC
Induced myeloid leukemia cell differentiation protein Mcl-1, sequence (Q07820 whole entry): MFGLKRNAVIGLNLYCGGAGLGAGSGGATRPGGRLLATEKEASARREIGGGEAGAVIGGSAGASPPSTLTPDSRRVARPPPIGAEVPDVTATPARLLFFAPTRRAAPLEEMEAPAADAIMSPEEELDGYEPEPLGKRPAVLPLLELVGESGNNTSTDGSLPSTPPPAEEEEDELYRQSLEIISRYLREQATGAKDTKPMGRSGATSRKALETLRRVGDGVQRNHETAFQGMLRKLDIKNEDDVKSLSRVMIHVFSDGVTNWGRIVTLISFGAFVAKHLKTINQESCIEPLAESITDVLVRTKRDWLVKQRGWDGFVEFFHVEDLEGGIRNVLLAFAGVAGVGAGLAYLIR
CAAX prenyl protease 1, sequence (P47154 whole entry): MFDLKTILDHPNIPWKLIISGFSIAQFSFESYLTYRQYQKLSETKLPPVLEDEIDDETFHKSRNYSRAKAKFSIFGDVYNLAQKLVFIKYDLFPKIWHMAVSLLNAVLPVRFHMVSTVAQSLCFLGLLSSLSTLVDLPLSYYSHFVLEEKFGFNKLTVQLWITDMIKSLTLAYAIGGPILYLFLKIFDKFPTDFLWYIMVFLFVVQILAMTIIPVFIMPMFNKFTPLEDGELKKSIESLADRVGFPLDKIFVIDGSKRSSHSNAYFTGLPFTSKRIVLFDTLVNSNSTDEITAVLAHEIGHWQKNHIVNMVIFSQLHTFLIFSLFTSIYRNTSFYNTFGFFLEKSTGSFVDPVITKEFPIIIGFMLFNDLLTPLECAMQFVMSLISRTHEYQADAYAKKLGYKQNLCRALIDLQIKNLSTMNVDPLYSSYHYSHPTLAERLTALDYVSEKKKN
Trypsin, sequence (P00761 whole entry): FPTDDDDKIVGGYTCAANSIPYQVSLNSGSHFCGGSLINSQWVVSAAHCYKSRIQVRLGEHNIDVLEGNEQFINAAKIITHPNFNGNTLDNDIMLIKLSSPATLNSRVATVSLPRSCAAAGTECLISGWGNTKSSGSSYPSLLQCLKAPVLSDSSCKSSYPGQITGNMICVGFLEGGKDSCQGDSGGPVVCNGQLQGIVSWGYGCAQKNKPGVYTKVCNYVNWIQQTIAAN
Large T antigen, sequence (P03070 whole entry): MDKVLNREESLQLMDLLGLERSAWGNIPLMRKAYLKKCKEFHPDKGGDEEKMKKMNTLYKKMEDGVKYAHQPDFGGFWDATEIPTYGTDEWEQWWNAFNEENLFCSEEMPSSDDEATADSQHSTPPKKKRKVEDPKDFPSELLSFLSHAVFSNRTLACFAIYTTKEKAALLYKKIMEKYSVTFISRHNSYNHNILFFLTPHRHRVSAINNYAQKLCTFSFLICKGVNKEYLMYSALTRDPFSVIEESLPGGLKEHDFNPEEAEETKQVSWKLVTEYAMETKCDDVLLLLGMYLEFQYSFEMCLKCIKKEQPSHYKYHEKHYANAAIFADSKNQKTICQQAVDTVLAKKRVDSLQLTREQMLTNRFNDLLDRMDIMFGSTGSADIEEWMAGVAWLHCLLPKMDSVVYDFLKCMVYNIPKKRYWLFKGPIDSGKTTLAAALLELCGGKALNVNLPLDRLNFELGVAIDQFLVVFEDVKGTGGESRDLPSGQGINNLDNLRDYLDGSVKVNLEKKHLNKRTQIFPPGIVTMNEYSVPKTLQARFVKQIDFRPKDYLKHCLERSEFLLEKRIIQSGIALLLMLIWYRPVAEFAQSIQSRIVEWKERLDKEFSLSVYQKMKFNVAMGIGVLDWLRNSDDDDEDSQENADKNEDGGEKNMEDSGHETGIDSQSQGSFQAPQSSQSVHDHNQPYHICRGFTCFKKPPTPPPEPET
Protein Tat, sequence (P04608 whole entry): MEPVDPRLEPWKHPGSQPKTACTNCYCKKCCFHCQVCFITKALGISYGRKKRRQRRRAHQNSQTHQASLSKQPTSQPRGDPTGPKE
CAAX prenyl protease 2 (Saccharomyces cerevisiae S288c, UniProt Q03530), sequence (Q03530 whole entry): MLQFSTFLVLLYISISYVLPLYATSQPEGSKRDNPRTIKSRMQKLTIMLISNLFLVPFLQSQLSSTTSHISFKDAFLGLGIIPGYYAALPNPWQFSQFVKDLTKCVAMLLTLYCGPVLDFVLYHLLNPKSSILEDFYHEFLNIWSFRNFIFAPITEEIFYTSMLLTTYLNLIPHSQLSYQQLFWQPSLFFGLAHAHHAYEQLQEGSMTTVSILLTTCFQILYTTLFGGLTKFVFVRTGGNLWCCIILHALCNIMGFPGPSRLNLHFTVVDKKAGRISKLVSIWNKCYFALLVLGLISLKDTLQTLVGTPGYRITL

AC50 (CAAX prenyl protease 2 [1]): 7.75 µM (active)
IC50 [2]: > 100 µM (active)
AC50 (CAAX prenyl protease 2 [3]): 14.4 µM (active)
AC50 (Trypsin): 5.89 µM (active)
AC50 (CAAX prenyl protease 1): 7.83 µM (active)
Compound: CC(=O)Nc1ccc(S(=O)(=O)Nc2cccc(-c3nc4ccccc4o3)c2)cc1

IC50 (Protein skinhead-1): > 100 µM (inactive)
IC50 (Estrogen receptor beta [4]): > 50 µM (not active)
IC50 [5]: 13.7 µM (active)
IC50 (Prothrombin): 22.8 µM (active)
IC50 (Protein Tat): 1.98 µM (inconclusive)
IC50 (Large T antigen): 29.3 µM (active)
IC50 (Estrogen receptor beta [7]): 2.65 µM (active)
IC50 [8]: 6.34 µM (active)
IC50 [9]: 3.18 µM (active)
Compound: CCCC1=NN2C(=N)/C(=C\c3ccc(SCc4ccco4)o3)C(=O)N=C2S1
IC50 [6]: 59.4 µM (active)
IC50 [10]: > 75 µM (active)

IC50 (Coagulation factor XII): > 50 µM (inactive)
Compound: COc1cc(NC(=O)COc2cccc(OC)c2)cc(OC)c1
